Reference: US12338199B2, “Bis-octahydrophenanthrene carboxamides and protein conjugates thereof” (REGENERON PHARMACEUTICALS, INC., priority 2017, dated 2025)

Legend:
LXR alpha = target: T1, LXR alpha (Homo sapiens, UniProt Q13133); experiment: LanthaScreen TR-FRET LXR alpha Coactivator Assay (cell-free binding); settings: TR-FRET, 12-point curve; read-out: Cell free binding LXRα IC50
T1 construct: LXR alpha or beta LBD-GST; purchased ThermoFisher PV4655
T1 sequence (Q13133 209-447 limits assumed): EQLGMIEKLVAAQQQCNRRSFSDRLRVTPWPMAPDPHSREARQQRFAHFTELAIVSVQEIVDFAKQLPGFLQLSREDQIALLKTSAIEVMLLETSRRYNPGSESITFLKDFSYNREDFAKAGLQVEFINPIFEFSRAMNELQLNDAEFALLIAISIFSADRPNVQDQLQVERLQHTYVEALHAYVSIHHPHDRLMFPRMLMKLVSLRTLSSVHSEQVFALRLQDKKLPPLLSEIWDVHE

THP1/LXR-Luc cells [1] = experiment: THP1/LXR-Luc luciferase reporter bioassay; type: cell-based; settings: Homo sapiens, THP-1, 48 hours
In short: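 THP1 cells stably carrying an LXR-response-element firefly luciferase reporter were seeded at 30,000/well in RPMI/10% FBS and given 3-fold dilutions (100 nM to 0.01 nM) for 48 or 72 h. Luminescence was read with One-Glo. EC50 came from a 4-parameter fit of a 10-point curve, and fold activation was taken relative to maximal free-payload activation.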

THP1/LXR-Luc cells [2] = experiment: LXR-luciferase reporter bioassay in PMA-differentiated THP1/LXR-Luc cells; type: cell-based, human; settings: for EC50: Homo sapiens, THP-1, 48 h, read-out: EC50
Text: To test the efficacy of anti-MSR1 antibody-LXR conjugates in vitro, a cell-based LXR responsive luciferase reporter assay was developed. To generate the assay cell line, a LXR regulated luciferase reporter gene [Cignal Lenti LXR Reporter (luc) kit (Qiagen, Cat # CLS-001L)] was transduced into THP1 cells, and cells were selected for two weeks in puromycin. The lentivirus expresses the firefly luciferase gene under the control of a minimal CMV promoter and tandem repeats of the LXR transcriptional response element. The resulting cell line is referred to as THP1/LXR-Luc cells.
THP1/LXR-Luc cells were seeded onto 96 well plates at 40,000 cells/well in media containing RPMI supplemented with 10% FBS and pencillin/streptomycin and subsequently differentiated with 200 nM Phorbol Myristate Acetate (PMA) for 3 days. After the 3-day differentiation period, three-fold serial dilutions of antibody drug conjugates, unconjugated antibodies, or free payloads in fresh media were added to the cells at final concentration ranging from 100 nM to 0.01 nM. Media alone served as a blank control. Forty-eight hours later, luciferase activity was determined after the addition of One-Glo™ reagent (Promega, Cat # E6130) to each well. Relative light units (RLUs) were measured on a Victor luminometer (PerkinElmer) and EC50 values were determined using a four-parameter logistic equation over a 10-point dose response curve (GraphPad Prism). The signal to noise (S/N) was determined by calculating the ratio of RLU of standard one over RLU of standard eight for each of the unconjugated anti-MSR1 antibodies or free payloads. “LP #” represents a linker-payload for which the corresponding structures are provided elsewhere herein, and “P #” represents a payload for which the corresponding structures are provided elsewhere herein.

C[C@]1(C(=O)NC(=O)[C@@]2(C)CCC[C@]3(C)c4cc(O)ccc4CC[C@@H]23)CCC[C@]2(C)c3cc(N)ccc3CC[C@@H]12 [Compound 9d, (1S,4aS,10aR)—N-[(1S,4aS,10aR)-6-Amino-1,4a-dimethyl-1,2,3,4,4a,9,10,10a-octahydrophenanthrene-1-carbonyl]-6-hydroxy-1,4a-dimethyl-1,2,3,4,4a,9,10,10a-octahydrophenanthrene-1-carboxamide]
IC50 (LXR alpha): < 10 nM
EC50 (THP1/LXR-Luc cells [1]; read-out: Activation of THP1/LXR-Luc cells: EC50): ≤ 1 nM
Emax (THP1/LXR-Luc cells [1]; relative to maximum activation of free payload 9d, read-out: Activation of THP1/LXR-Luc cells: Fold of activation): > 75%
EC50 (THP1/LXR-Luc cells [2]; 48-hour time point, stimulation of THP1/Luc cells): 15.9 nM
EC50 (THP1/LXR-Luc cells [2]; PMA-differentiated THP1/LXR-Luc cells, 48 hours, luciferase activity (One-Glo), 10-point dose response 100 nM to 0.01 nM): 1.14 nM
S/N (signal to noise, ratio of RLU of standard one over RLU of standard eight) (THP1/LXR-Luc cells [2]; PMA-differentiated THP1/LXR-Luc cells, 48 hours, luciferase activity): 15.9
